Measurements: patent publication US12233129B2, “Methods and compositions for the treatment of cancer” (priority 2019, dated 2025)

Key:
Experiment in all cases: Annexin V staining and flow cytometry (positive control)
Type in all cases: cell-based, human
Conditions in all cases: 100 nM, 24 hours
SW48 = test system: SW48
Description: (§1) Apoptosis in cells was assessed using an Annexin V Apoptosis Detection Kit (BD Pharmingen, San Jose, CA, USA) analyzed by using a BD Accuri C6 flow cytometer according to the manufacturer's instructions.
(§2) HCT-116 or SW48 were transfected with GFP empty vector or GFP-UBXN2A using the Neon electrotransfection system (HCT-116 and SW48) or lipofectamin 2000 (CCD-118-Co), achieving around 80% transfection efficiency. Apoptosis in cells was assessed using an Annexin V Apoptosis Detection Kit (BD Pharmingen, San Jose, CA) analyzed by a BD Accuri C6 flow cytometer according to the manufacturer's instructions. In each individual experiment, GFP expressing cells were first gated and then plotted versus Annexin V positive cells. 10,000 gated events were collected per sample. An apoptotic inducer, staurosporine (Sigma), was used as a positive control in all experiments.
(§3) FIG. 12: Annexin V staining and flow cytometry is a valid assay for measurement of early apoptosis. Un-transfected CCD-18Co, HCT-116, and SW48 cells were incubated with vehicle or staurosporine, a well-known inducer of apoptosis in a wide range of cell lines, for 24 hours. Subsequently, cells were stained with BD Biosciences Cy5 Annexin V and read on an Accuri C6 flow cytometer. Panel A. The histograms show a comparison of the distribution of Annexin V positive cells in un-transfected CCD-18Co, HCT-116 and SW48 cells (no gating). […] Panel C-D: We conducted a set of IP experiments to further confirm UBXN2A can only bind to the SBD domain and not the ATP domain. HCT-116 cells were transiently transfected with SBD domain or ATP domain of mot-2. After 36 hours, cell lysates were prepared followed by immunoprecipitation using anti-UBXN2A immobilized on magnetic protein G beads. Immunoprecipitation experiments verified UBXN2A binds to the SBD domain of mot-2 (amino acid residue 432-679) in HCT-116 cells and not the ATP domain (amino acid residue 1-437). This set of immunoprecipitation experiments verified results achieved in Y2H experiments. […]

HCT-116 = test system: HCT-116
Description: as §1, §2, §3

CCD-18Co = test system: CCD-18Co
Description: as §1, §2, §3

Measured: apoptosis (Annexin V positive cells)

CN[C@@H]1C[C@H]2O[C@@](C)([C@@H]1OC)n1c3ccccc3c3c4c(c5c6ccccc6n2c5c31)C(=O)NC4 [staurosporine]
induce significant apoptosis: SW48 | HCT-116 | CCD-18Co
